Measured values as given in the supplement of paper PMC10307832.

Columns and labels:
Assay in all cases: relative viability (nuclei count vs DMSO), 5 days (fraction); higher = more cells survive
[1] = compound: Nc1nc(Nc2ccc3c(c2)CC[C@@H](N2CCCC2)CC3)nn1-c1cc2c(nn1)-c1ccccc1CCC2 [Bemcentinib] + C[C@@H](Oc1cc(-c2cnn(C3CCNCC3)c2)cnc1N)c1c(Cl)ccc(F)c1Cl [Crizotinib] (partner 1 µM)
Procedure, shortened: (§1)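 Nuclei were stained with Hoechst during a one-step fixation (final 0.05% Triton X-100, 1% formaldehyde, 1 ug/ml Hoechst) carried out 5 days after dosing, then counted on 4× images. The cells, lung cancer lines in 1536-well plates, had been dosed by pin tool the day after seeding with one drug alone or a fixed anchor-drug dose plus five library-drug doses (not always all listed) in √10 steps. Relative viability is the nuclei count in treated wells divided by that in vehicle wells, and each value is the median of duplicate plates.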

[2] = compound: Nc1nc(Nc2ccc3c(c2)CC[C@@H](N2CCCC2)CC3)nn1-c1cc2c(nn1)-c1ccccc1CCC2 [Bemcentinib] + COc1cccc2cc(-c3nc([C@H]4CC[C@H](C(=O)O)CC4)n4ncnc(N)c34)[nH]c12 [OSI-027] (partner 0.5 µM)
Procedure, shortened: as §1

[3] = compound: CC1=CC=C(C=C1)C(=O)CN2C3=C(CCCC3)SC2=N [Pifithrin_alpha] + O=C(CCCCCCC(=O)Nc1ccccc1)NO [Vorinostat] (partner 1 µM)
Procedure, shortened: as §1

| Cell Line | relative viability ([1]; first compound 0.04 µM) | relative viability ([1]; first compound 0.1265 µM) | relative viability ([1]; first compound 0.4 µM) | relative viability ([1]; first compound 1.265 µM) | relative viability ([1]; first compound 4 µM) | relative viability ([2]; first compound 0.04 µM) | relative viability ([2]; first compound 0.1265 µM) | relative viability ([2]; first compound 0.4 µM) | relative viability ([2]; first compound 1.265 µM) | relative viability ([2]; first compound 4 µM) | relative viability ([3]; first compound 1 µM) | relative viability ([3]; first compound 3.162 µM) | relative viability ([3]; first compound 10 µM) | relative viability ([3]; first compound 31.62 µM) | relative viability ([3]; first compound 100 µM) |
| --- | --- | --- | --- | --- | --- | --- | --- | --- | --- | --- | --- | --- | --- | --- | --- |
| LXF-289 | 0.88 | 0.833 | 0.817 | 0.791 | 0.877 | 0.744 | 0.837 | 0.782 | 0.801 | 0.819 | 0.718 | 0.805 | 0.79 | 0.662 | 0.782 |
| NCI-H3122 | 0.257 | 0.157 | 0.262 | 0.31 | 0.293 |  | 1.08 | 0.978 | 1.11 | 0.983 | 0.878 | 0.978 | 1.03 | 0.828 | 0.898 |
| NCI-H2023 | 0.648 | 0.653 | 0.723 | 0.6 | 0.599 | 0.323 | 0.511 | 0.462 | 0.419 | 0.445 | 0.726 | 0.577 | 0.545 | 0.334 | 0.464 |
| NCI-H838 | 0.805 | 0.958 | 0.906 | 0.893 | 0.869 | 0.38 | 0.434 | 0.371 | 0.442 | 0.372 | 0.593 | 0.591 | 0.555 | 0.567 | 0.525 |
| COR-L 105 | 0.638 | 0.843 | 0.969 | 0.641 | 0.621 | 0.521 | 0.642 | 0.571 | 0.713 | 0.726 | 0.844 | 0.665 | 0.699 | 0.608 | 0.633 |
| RERF-LC-KJ | 0.919 | 0.856 | 0.78 | 0.896 | 0.841 | 0.594 | 0.552 | 0.571 | 0.58 | 0.567 | 0.329 | 0.627 | 0.547 | 0.448 | 0.488 |
| NCI-H2405 | 0.826 | 0.922 | 0.87 | 0.853 | 0.914 | 0.665 | 0.64 | 0.62 | 0.707 | 0.692 |  | 0.931 | 0.743 | 0.734 | 0.785 |
| UMC-11 | 0.568 | 0.57 | 0.589 | 0.692 | 0.662 | 0.466 | 0.528 | 0.504 | 0.516 | 0.473 | 0.342 | 0.382 | 0.343 | 0.245 | 0.256 |
| PC-14 | 0.838 | 0.937 | 0.879 | 0.896 | 1.01 | 0.84 | 1.08 | 0.938 | 0.953 | 0.81 | 0.626 | 0.77 | 0.802 | 0.414 | 0.625 |
| HCC-78 | 0.322 | 0.344 | 0.334 | 0.334 | 0.328 | 0.343 | 0.348 | 0.38 |  | 0.371 |  | 0.506 | 0.519 | 0.407 | 0.467 |
| A-427 |  | 0.95 | 0.843 | 0.931 | 0.863 | 0.455 | 0.511 | 0.492 | 0.427 | 0.472 | 0.827 | 0.83 | 0.807 | 0.762 | 0.728 |
| HCC-827 | 0.971 | 0.867 | 0.914 | 1 | 0.939 | 0.816 | 0.927 | 0.862 | 0.84 | 0.848 | 0.156 | 0.894 | 0.765 | 0.709 | 0.787 |
| ABC-1 | 1.06 | 1.26 | 0.934 | 0.95 | 1.02 | 0.435 | 0.402 | 0.469 | 0.683 | 0.507 |  | 1.25 | 0.844 | 0.622 | 0.765 |
| EPLC-272H |  | 0.96 | 1.05 | 0.86 | 1.01 | 0.342 | 0.266 | 0.318 | 0.244 | 0.361 | 0.472 | 0.419 | 0.244 | 0.177 | 0.27 |
| SK-MES-1 | 1.03 | 0.955 | 0.998 | 1.14 | 1.06 | 0.645 | 0.595 | 0.666 | 0.799 | 0.69 | 1.01 | 0.95 | 0.959 | 0.591 | 0.852 |
| NCI-H520 | 0.53 | 0.823 | 0.912 | 0.971 | 0.686 | 0.237 | 0.24 | 0.262 | 0.247 | 0.258 | 0.641 | 0.954 | 0.716 | 0.678 | 0.772 |
| BEN | 0.936 | 1.16 | 0.935 | 0.845 | 0.775 | 0.292 | 0.288 | 0.296 | 0.345 | 0.322 | 0.448 | 0.564 | 0.617 | 0.555 | 0.571 |
| LK-2 | 0.217 | 0.186 | 0.252 | 0.224 | 0.234 | 0.171 | 0.229 | 0.206 | 0.186 | 0.19 | 0.29 | 0.257 | 0.255 | 0.256 | 0.353 |
| NCI-H2087 | 0.827 | 0.982 | 0.942 | 0.999 | 1.05 | 0.495 | 0.687 | 0.589 | 0.544 | 0.571 | 0.777 | 0.877 | 0.968 | 0.672 | 0.618 |
| NCI-H661 | 0.878 | 0.947 | 0.852 | 0.998 | 1.02 | 0.716 | 0.719 | 0.762 | 0.775 | 0.745 | 0.8 | 0.805 | 0.788 | 0.662 | 0.771 |
| NCI-H2170 | 1.36 | 1.36 | 1.21 | 1.38 | 1.31 | 0.739 | 0.743 | 0.76 | 0.729 | 0.807 | 0.791 | 0.873 | 0.837 | 0.681 | 0.842 |
| LCLC-103H | 1.05 | 1.11 | 1.04 | 1.13 | 1.11 | 0.479 | 0.5 | 0.452 | 0.422 | 0.448 | 0.565 | 0.884 | 0.782 | 0.733 | 0.761 |
| NCI-H441 | 0.66 | 0.704 | 0.757 | 0.665 | 0.779 | 0.583 | 0.695 | 0.765 | 0.558 | 0.659 | 0.766 | 0.735 | 0.876 |  | 0.931 |
| LOU-NH91 | 0.717 | 0.726 | 0.732 | 0.753 | 0.756 | 0.697 | 0.703 | 0.721 | 0.749 | 0.775 | 0.8 | 0.868 | 0.821 | 0.597 | 0.739 |
| NCI-H647 | 1.13 | 1.39 | 1.1 | 1.12 | 1.21 | 0.696 | 0.799 | 0.637 | 0.666 | 0.649 | 0.514 | 0.565 | 0.592 | 0.482 | 0.53 |
| NCI-H1915 | 0.957 | 1.03 | 0.911 | 0.96 | 0.989 | 0.625 | 0.661 | 0.635 | 0.59 | 0.696 | 0.456 | 0.527 | 0.418 |  | 0.543 |
| NCI-H1944 | 1.13 | 1.11 | 1.17 | 1.18 | 1.1 | 0.43 | 0.483 | 0.407 | 0.413 | 0.41 | 0.503 | 0.572 | 0.505 | 0.351 | 0.395 |
| HARA | 1.02 | 1.28 | 1.22 | 1.08 | 1.03 | 0.479 | 0.758 | 0.589 | 0.453 | 0.469 |  | 0.558 | 0.674 | 0.468 | 0.513 |
| NCI-H2347 | 0.783 | 1.01 | 0.612 | 0.669 | 0.627 | 0.413 | 0.454 | 0.386 | 0.429 | 0.422 | 0.541 | 0.533 | 0.685 | 0.459 | 0.536 |
